Assay results taken from patent US20260250318A1, “COMPOSITIONS AND METHODS FOR CROSSING THE BLOOD BRAIN BARRIER” (VOYAGER THERAPEUTICS, INC., priority 2022, published 2026).

These sequences were tested on brain (assay: NGS fold enrichment of synthetic library (passage 3) in C57Bl/6 mice, first cross-species screen). Details: synthetic library passage 3, intravenous, RNA NGS, brain of C57Bl/6 mice, relative to wild-type AAV9.
Type: in vivo
Summary of the method: (§1)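 Fold enrichment versus wild-type AAV9 was derived by NGS of RT-PCR-amplified RNA from nervous tissue, collected e.g. 28 days after IV dosing […]. The library (passage 3) was given to two NHPs aged 2-4 years and to 6-8-week BALB/c and C57Bl/6 mice (n=3 each).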

| Sequence | Fold enrichment over AAV9 in the brain of Mice (C57Bl/6) [fold] |
| --- | --- |
| GVVRNHQSGQNQQT | 0.899 |
| GVVAHQPSGQNQQT | 0.910 |
| GTREMPLSGQNQQT | 1.436 |
| GRGVITSSGQNHQT | 1.656 |
| GSGQYANHGINQQT | 0.906 |
| GSGQNQQTGQATHN | 0.877 |
| GSGQNQQTSGTTNC | 1.040 |
| GSGQNQQVGSTVRT | 0.918 |
| GSGQNQQTSVGFRT | 0.648 |
| GSGQNGGSSNRQQT | 1.255 |
| GSGQTHGGQHNQQT | 1.448 |
| GSRNGHTVGRNQQT | 1.162 |
| GVHTHLPSGQNQQT | 1.414 |
| GSTGSHSAGQNQHT | 1.190 |
| GNGLYAVSGQNQQT | 0.322 |
| GSSTRVDSGQNQQT | 0.704 |
| GSGQNQRSSGGVQT | 1.805 |
| GNILHATSGQNQQT | 1.159 |
| GSGQNQQTLSKPWT | 0.845 |

Same assay, conditions: synthetic library passage 3, intravenous, RNA from brain of C57Bl/6 mice, NGS, relative to wild-type AAV9

| Sequence | Fold enrichment over AAV9 in the brain of Mice (C57Bl/6) [fold] |
| --- | --- |
| GSGQNQQTMANGQR | 1.169 |
| GSGQNQQPSLRQST | 1.315 |
| GSLDLGRSGQNQQT | 1.002 |
| GSSGSHQYGQNQQT | 1.129 |
| GSGIVTKLGQNQQT | 0.599 |
| GSGQNQQKLSSMST | 1.160 |
| GSGQNQQAPHKKET | 0.994 |

What follows are sequences tested on brain, spinal cord, and DRG of the NHPs (assay: NGS fold enrichment of synthetic library (passage 3) in NHPs, first cross-species screen). Details: synthetic library passage 3, intravenous, RNA NGS, brain of NHPs, relative to wild-type AAV9.
Type: in vivo, cynomolgus macaques (Macaca fascicularis)
Summary of the method: as §1

| Sequence | Fold enrichment over AAV9 in the brain of NHPs [fold] |
| --- | --- |
| GVVRNHQSGQNQQT | 1.116 |
| GVVAHQPSGQNQQT | 2.103 |
| GTREMPLSGQNQQT | 2.339 |
| GRGVITSSGQNHQT | 2.004 |
| GSGQYANHGINQQT | 1.820 |
| GSGQNQQTGQATHN | 0.996 |
| GSGQNQQTSGTTNC | 1.854 |
| GSGQNQQVGSTVRT | 1.124 |
| GSGQNQQTSVGFRT | 1.077 |
| GSGQNGGSSNRQQT | 1.109 |
| GSGQTHGGQHNQQT | 2.125 |
| GSRNGHTVGRNQQT | 1.993 |
| GVHTHLPSGQNQQT | 1.952 |
| GSTGSHSAGQNQHT | 3.717 |
| GNGLYAVSGQNQQT | 2.611 |
| GSSTRVDSGQNQQT | 1.584 |
| GSGQNQRSSGGVQT | 1.723 |
| GNILHATSGQNQQT | 2.136 |
| GSGQNQQTLSKPWT | 1.743 |

Same assay, conditions: synthetic library passage 3, intravenous, RNA NGS, spinal cord of NHPs, relative to wild-type AAV9

| Sequence | Fold enrichment over AAV9 in the spinal cord of NHPs [fold] |
| --- | --- |
| GVVRNHQSGQNQQT | 5.801 |
| GVVAHQPSGQNQQT | 0.152 |
| GTREMPLSGQNQQT | 2.830 |
| GRGVITSSGQNHQT | 0.864 |
| GSGQYANHGINQQT | 5.717 |
| GSGQNQQTGQATHN | 2.199 |
| GSGQNQQTSGTTNC | 8.161 |
| GSGQNQQVGSTVRT | 2.040 |
| GSGQNQQTSVGFRT | 3.737 |
| GSGQNGGSSNRQQT | 2.594 |
| GSGQTHGGQHNQQT | 12.251 |
| GSRNGHTVGRNQQT | 0.000 |
| GVHTHLPSGQNQQT | 1.364 |
| GSTGSHSAGQNQHT | 0.285 |
| GNGLYAVSGQNQQT | 9.148 |
| GSSTRVDSGQNQQT | 2.774 |
| GSGQNQRSSGGVQT | 2.056 |
| GNILHATSGQNQQT | 0.125 |
| GSGQNQQTLSKPWT | 0.253 |

Same assay, conditions: synthetic library passage 3, intravenous, RNA from brain of NHPs, NGS, relative to wild-type AAV9

| Sequence | Fold enrichment over AAV9 in the brain of NHPs [fold] |
| --- | --- |
| GSGQNQQTMANGQR | 1.394 |
| GSGQNQQPSLRQST | 1.356 |
| GSLDLGRSGQNQQT | 1.160 |
| GSSGSHQYGQNQQT | 1.155 |
| GSGIVTKLGQNQQT | 1.174 |
| GSGQNQQKLSSMST | 1.286 |
| GSGQNQQAPHKKET | 1.180 |

Same assay, conditions: synthetic library passage 3, intravenous, RNA from spinal cord of NHPs, NGS, relative to wild-type AAV9

| Sequence | Fold enrichment over AAV9 in the spinal cord of NHPs [fold] |
| --- | --- |
| GSGQNQQTMANGQR | 0.216 |
| GSGQNQQPSLRQST | 2.905 |
| GSLDLGRSGQNQQT | 3.283 |
| GSSGSHQYGQNQQT | 0.000 |
| GSGIVTKLGQNQQT | 10.571 |
| GSGQNQQKLSSMST | 1.586 |
| GSGQNQQAPHKKET | 0.598 |

These sequences were tested on brain (assay: NGS fold enrichment of synthetic library (passage 3) in BALB/c mice, first cross-species screen). Details: synthetic library passage 3, intravenous, RNA NGS, brain of BALB/c mice, relative to wild-type AAV9.
Type: in vivo
Summary of the method: as §1

| Sequence | Fold enrichment over AAV9 in the brain of Mice (BALB/c) [fold] |
| --- | --- |
| GVVRNHQSGQNQQT | 0.868 |
| GVVAHQPSGQNQQT | 2.267 |
| GTREMPLSGQNQQT | 0.538 |
| GRGVITSSGQNHQT | 0.669 |
| GSGQYANHGINQQT | 0.701 |
| GSGQNQQTGQATHN | 0.527 |
| GSGQNQQTSGTTNC | 0.806 |
| GSGQNQQVGSTVRT | 0.614 |
| GSGQNQQTSVGFRT | 0.534 |
| GSGQNGGSSNRQQT | 0.844 |
| GSGQTHGGQHNQQT | 1.098 |
| GSRNGHTVGRNQQT | 0.367 |
| GVHTHLPSGQNQQT | 0.796 |
| GSTGSHSAGQNQHT | 0.850 |
| GNGLYAVSGQNQQT | 0.213 |
| GSSTRVDSGQNQQT | 0.660 |
| GSGQNQRSSGGVQT | 1.165 |
| GNILHATSGQNQQT | 0.424 |
| GSGQNQQTLSKPWT | 0.733 |

Same assay, conditions: synthetic library passage 3, intravenous, RNA from brain of BALB/c mice, NGS, relative to wild-type AAV9

| Sequence | Fold enrichment over AAV9 in the brain of Mice (BALB/c) [fold] |
| --- | --- |
| GSGQNQQTMANGQR | 1.230 |
| GSGQNQQPSLRQST | 0.554 |
| GSLDLGRSGQNQQT | 0.505 |
| GSSGSHQYGQNQQT | 0.794 |
| GSGIVTKLGQNQQT | 0.242 |
| GSGQNQQKLSSMST | 1.052 |
| GSGQNQQAPHKKET | 0.689 |
